Experimental data: BindingDB's records for doi:10.1016/j.bmcl.2009.11.061 (Glaxosmithkline, 2010)

Assay: Inhibition of GSK3beta phosphorylation in human BT474 cells

IC50 [nM]	SMILES
560	Cc1occc1-c1nc(N)c(OC[C@@H](N)Cc2c[nH]c3ccccc23)cc1-c1cnc2[nH]nc(C)c2n1 [3-((S)-2-amino-3-(1H-indol-3-yl)propoxy)-5-(3-methyl-1H-pyrazolo[4,3-b]pyrazin-5-yl)-6-(2-methylfuran-3-yl)pyridin-2-amine]
220	Cc1occc1-c1nc(N)c(OC[C@@H](N)Cc2c[nH]c3ccccc23)cc1-c1ccc2[nH]nc(C)c2c1 [3-((S)-2-amino-3-(1H-indol-3-yl)propoxy)-5-(3-methyl-1H-indazol-5-yl)-6-(2-methylfuran-3-yl)pyridin-2-amine]
280	Cc1occc1-c1nc(N)c(OC[C@@H](N)Cc2ccccc2)cc1-c1cnc2[nH]nc(C)c2n1 [3-((S)-2-amino-3-phenylpropoxy)-5-(3-methyl-1H-pyrazolo[4,3-b]pyrazin-5-yl)-6-(2-methylfuran-3-yl)pyridin-2-amine]
680	Cc1occc1-c1nc(N)c(OC[C@@H](N)Cc2c[nH]c3ccccc23)cc1-c1cc2c(C)n[nH]c2cn1 [3-((S)-2-amino-3-(1H-indol-3-yl)propoxy)-5-(3-methyl-1H-pyrazolo[3,4-c]pyridin-5-yl)-6-(2-methylfuran-3-yl)pyridin-2-amine]
> 30000	Cc1occc1-c1nc(N)c(OC[C@@H](N)Cc2c(C#N)[nH]c3ccccc23)cc1-c1cnc2[nH]nc(C)c2n1 [3-((2S)-2-amino-3-(2-amino-5-(3-methyl-1H-pyrazolo[4,3-b]pyrazin-5-yl)-6-(2-methylfuran-3-yl)pyridin-3-yloxy)propyl)-1H-indole-2-carbonitrile]
210	Cc1occc1-c1ncc(OC[C@@H](N)Cc2c[nH]c3ccccc23)cc1-c1cnc2[nH]nc(C)c2n1 [(2S)-1-(1H-indol-3-yl)-3-(5-(3-methyl-1H-pyrazolo[4,3-b]pyrazin-5-yl)-6-(2-methylfuran-3-yl)pyridin-3-yloxy)propan-2-amine]
> 10000	Cc1n[nH]c2ncc(-c3cc(OC[C@@H](N)Cc4c[nH]c5ccccc45)c(C#N)nc3-c3ccoc3)nc12 [(S)-3-(2-amino-3-(1H-indol-3-yl)propoxy)-6-(furan-3-yl)-5-(3-methyl-1H-pyrazolo[4,3-b]pyrazin-5-yl)picolinonitrile]
300	Cc1occc1-c1nc(N)c(OC[C@@H](N)Cc2c(Cl)[nH]c3ccccc23)cc1-c1cnc2[nH]nc(C)c2n1 [3-((S)-2-amino-3-(2-chloro-1H-indol-3-yl)propoxy)-5-(3-methyl-1H-pyrazolo[4,3-b]pyrazin-5-yl)-6-(2-methylfuran-3-yl)pyridin-2-amine]
280	Cc1nc(-c2ccoc2)c(-c2cnc3[nH]nc(C)c3n2)cc1OC[C@@H](N)Cc1c[nH]c2ccccc12 [(S)-1-(6-(furan-3-yl)-2-methyl-5-(3-methyl-1H-pyrazolo[4,3-b]pyrazin-5-yl)pyridin-3-yloxy)-3-(1H-indol-3-yl)propan-2-amine]
> 10000	CCNc1nc(-c2ccoc2)c(-c2cnc3[nH]nc(C)c3n2)cc1OC[C@@H](N)Cc1ccccc1 [(S)-3-(2-amino-3-phenylpropoxy)-N-ethyl-6-(furan-3-yl)-5-(3-methyl-1H-pyrazolo[4,3-b]pyrazin-5-yl)pyridin-2-amine]
> 30000	Cc1occc1-c1nc(N)c(OC[C@@H](N)Cc2c(C(N)=O)[nH]c3ccccc23)cc1-c1cnc2[nH]nc(C)c2n1 [3-((2S)-2-amino-3-(2-amino-5-(3-methyl-1H-pyrazolo[4,3-b]pyrazin-5-yl)-6-(2-methylfuran-3-yl)pyridin-3-yloxy)propyl)-1H-indole-2-carboxamide]
